# Earlier results in patent US9718036B2, “Method of preparing carrier liquids” (The University of Liverpool, priority 2011, dated 2017).
# Settings: at 20° C.
structure (smiles),measurement,value
CC1(C)C(/C=C(\Cl)C(F)(F)F)C1C(=O)OC(C#N)c1cccc(Oc2ccccc2)c1 (stereo not shown) [λ-cyhalothrin],solubility in water,5 µg/mL
